Reference: ChEMBL document CHEMBL4020715, “Structure-activity relationship study of vitamin D analogs with oxolane group in their side chain” (Eur J Med Chem, 2017)
Activity calls are given as the source filed them. No cut-off for these calls is given here.

How the values were obtained:
Type in all cases: cell-based
[1] = target: T1, Vitamin D3 receptor A (Danio rerio) (UniProt Q9PTN2); test: Agonist activity at zebrafish VDR LBD (156 to 453 residues) expressed in HEK293 EBNA cells harboring human CYP24-Tk-Luc plasmid assessed as induction of CYP24a1 gene at 1000 nM after 18 hrs by dual-luciferase transcriptional reporter gene assay relative to control
T1 sequence (whole entry): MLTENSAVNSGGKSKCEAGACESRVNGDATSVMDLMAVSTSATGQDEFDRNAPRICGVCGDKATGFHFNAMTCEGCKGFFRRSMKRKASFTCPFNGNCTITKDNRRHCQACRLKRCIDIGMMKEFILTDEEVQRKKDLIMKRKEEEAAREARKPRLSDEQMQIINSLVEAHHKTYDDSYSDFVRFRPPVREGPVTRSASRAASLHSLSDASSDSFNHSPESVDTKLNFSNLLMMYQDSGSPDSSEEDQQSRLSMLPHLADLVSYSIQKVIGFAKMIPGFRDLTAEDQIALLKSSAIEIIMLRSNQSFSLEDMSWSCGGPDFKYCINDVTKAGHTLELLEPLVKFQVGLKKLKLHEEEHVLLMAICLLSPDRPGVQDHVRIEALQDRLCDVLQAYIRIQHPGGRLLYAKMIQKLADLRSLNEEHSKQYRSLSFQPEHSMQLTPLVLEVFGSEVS

[2] = target: T2, Vitamin D3 receptor (Homo sapiens) (UniProt P11473); test: Agonist activity at VP16-fused human full length VDR expressed in COS7 cells assessed as corepressor Gal4 DBD-fused NCOR NRID release at 10 to 1000 nM after 48 hrs by luciferase reporter gene assay based mammalian two-hybrid assay
T2 sequence (whole entry): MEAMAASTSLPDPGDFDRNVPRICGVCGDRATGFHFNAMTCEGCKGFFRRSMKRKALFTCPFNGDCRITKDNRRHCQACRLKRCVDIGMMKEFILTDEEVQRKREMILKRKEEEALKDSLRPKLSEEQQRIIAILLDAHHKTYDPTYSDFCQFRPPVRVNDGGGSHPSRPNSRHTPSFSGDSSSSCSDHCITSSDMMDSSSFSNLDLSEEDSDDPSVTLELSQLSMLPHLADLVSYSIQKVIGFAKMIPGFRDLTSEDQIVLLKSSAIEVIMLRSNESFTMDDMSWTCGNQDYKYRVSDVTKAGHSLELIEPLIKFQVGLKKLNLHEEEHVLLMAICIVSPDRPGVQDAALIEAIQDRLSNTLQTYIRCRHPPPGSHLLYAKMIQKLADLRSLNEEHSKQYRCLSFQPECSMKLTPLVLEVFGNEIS

Vitamin D3 receptor A = target: T3, Vitamin D3 receptor A (Danio rerio, UniProt Q9PTN2); test: Agonist activity at zebrafish VDR LBD (156 to 453 residues) expressed in HEK293 EBNA cells harboring human CYP24-Tk-Luc plasmid assessed as induction of CYP24a1 gene after 18 hrs by dual-luciferase transcriptional reporter gene assay
T3 sequence (Q9PTN2 whole entry): T1 sequence (whole entry)

[3] = target: T2, Vitamin D3 receptor (Homo sapiens); test: Agonist activity at VP16-fused human full length VDR expressed in COS7 cells assessed as corepressor Gal4 DBD-fused SMRT NRID release at 10 to 1000 nM after 48 hrs by luciferase reporter gene assay based mammalian two-hybrid assay
[4] = target: T1, Vitamin D3 receptor A (Danio rerio); test: Agonist activity at zebrafish VDR LBD (156 to 453 residues) expressed in HEK293 EBNA cells harboring human CYP24-Tk-Luc plasmid assessed as induction of CYP24a1 gene at 100 nM after 18 hrs by dual-luciferase transcriptional reporter gene assay
[5] = target: T1, Vitamin D3 receptor A (Danio rerio); test: Agonist activity at zebrafish VDR LBD (156 to 453 residues) expressed in HEK293 EBNA cells harboring human CYP24-Tk-Luc plasmid assessed as induction of CYP24a1 gene at 0.1 nM after 18 hrs by dual-luciferase transcriptional reporter gene assay

Row | Efficacy [1] [%] | Activity [2] | EC50 (Vitamin D3 receptor A) [µM] | Activity [3] | Activity [4] | Activity [5] | SMILES
1 | 90 | Active | > 0.1 | Active | Active |  | C=C1/C(=C\C=C2/CCC[C@]3(C)[C@@H]([C@H](C)[C@@H]4CC[C@@H](C(C)(C)O)O4)CC[C@@H]23)C[C@@H](O)C[C@H]1O
2 |  |  |  |  |  | Active | C=C1/C(=C\C=C2/CCC[C@@]3(C)[C@H]2CC[C@@H]3[C@]2(C)C[C@@H](CC(C)(C)O)CO2)C[C@@H](O)C[C@@H]1O
3 | 100 |  |  |  |  |  | C=C1/C(=C\C=C2/CCC[C@]3(C)[C@@H]([C@H](C)CCCC(C)(C)O)CC[C@@H]23)C[C@@H](O)C[C@H]1O
4 | 100 | Active | > 0.1 | Active |  |  | C=C1/C(=C\C=C2/CCC[C@]3(C)[C@@H]([C@H](C)[C@H]4CC[C@@H](C(C)(C)O)O4)CC[C@@H]23)C[C@@H](O)C[C@H]1O
5 | 47 | Active | > 0.1 | Active |  |  | C=C1/C(=C\C=C2/CCC[C@]3(C)[C@@H]([C@H](C)[C@@H]4CC[C@H](C(C)(C)O)O4)CC[C@@H]23)C[C@@H](O)C[C@H]1O
